Data: patent EP4588921A1, “FREE BASE CRYSTAL FORM OF POLYCYCLIC COMPOUND OF NITROGEN-CONTAINING HETEROCYCLE, AND PREPARATION METHOD THEREFOR” (Jiangsu Hansoh Pharmaceutical Group Co., Ltd., priority 2022, dated 2024)
Values after ≈ are worked out from the molar mass of the structure shown. Like-named read-outs stand apart in the source and are kept apart here.

Columns and labels:
[1] = PK studies in animals of the free base crystal forms; type: in vivo; conditions: SD rats, plasma; for MRT inf: read-out: MRT 0-∞
Experimental: The pharmacokinetic of the free base crystal form after a single intravenous administration was studied, and the bioavailability of the free base crystal form I and the free base crystal form II after oral administration were calculated.
The free base crystal form I was suspended with 0.5% CMCC-Na aqueous solution, and the free base crystal form […] aqueous solution. After uniformity, the suspensions were administered intragastrically to rats in triplicate at a dosage of 5 mg/kg (30 mg/kg for suspension) for the free base crystal form I and a dosage of 30 mg/kg (suspension) for the free base crystal form II. The free base crystal form I was dissolved with 20% HP-β-CD aqueous solution to obtain a clear solution, and the clear solution was filtered through a filter membrane. The filtered solution was administered via injection to rats in triplicate.

[2] = Solid stability experiment (related substances by HPLC); type: physicochemical
Experimental: The compound physical and chemical stability at high temperature of 60°C, high humidity of 92.5% RH and both high temperature of 50°C and high humidity of 75% RH of the free base crystal form I and the free base crystal form II were investigated to provide a basis for the storage of the compounds.
About 2 mg of the free base crystal form I and the free base crystal form II were taken respectively, and changes of related substances in the crystal forms at high temperature of 60°C, high humidity of 92.5% RH, and both high temperature of 50°C and high humidity of 75%RH for 7 days and 14 days were investigated. The changes of related substances were calculated by HPLC and the chromatographic peak area normalization method.

[3] = Solubility experiments in different media (thermodynamic solubility); type: physicochemical; conditions: thermodynamic from solid
Description: The solubility of the free base crystal form I and the free base crystal form II in media such as pH 1.0-8.0 USP buffer, artificial simulated gastric fluid (FaSSGF), fasted-state artificial simulated intestinal fluid (FaSSIF), fed-state artificial simulated intestinal fluid (FeSSIF) and pure water was compared to provide a basis for the evaluation of drugability.

[4] = Hygroscopicity experiment; type: physicochemical
Experimental: The hygroscopicity of the crystal form I and the crystal form II of compound 9 were investigated under different relative humidity to provide a basis for the storage of the compounds.
The crystal form I and the crystal form II of compound 9 were placed in saturated water vapor at different relative humidities to allow the compound to reach a dynamic equilibrium with the water vapor, and the percentage of weight gain after moisture absorption of the compound after equilibrium was calculated.

[5] = Sprague-Dawley (SD), rat, 2 mg/kg, IV, 2MPK, 20%HP-B-CD solution
[6] = Sprague-Dawley (SD), rat, iv, 2 mg/kg, 2MPK, 20%HP-B-CD solution
[7] = Sprague-Dawley (SD), rat, po, 5 mg/kg, 5MPK, 0.5%CMC-Na
[8] = Sprague-Dawley (SD), rat, po, 30 mg/kg, 30MPK, 0.5%CMC-Na suspension
[9] = Room temperature, 92.5%RH, 7 days
[10] = Room temperature, 92.5%RH, 14 days

For `CC(C)(O)c1nc(N2C[C@H]3CN(C(=O)c4c(F)cccc4-c4ncccn4)C[C@H]3C2)ncc1F` [free base crystal form I, ((3aR,6aS)-5-(5-fluoro-4-(2-hydroxyprop-2-yl)pyrimidin-2-yl)hexahydropyrrolo [3,4-c]pyrrol-2(1H)-yl)(2-fluoro-6-(pyrimidin-2-yl)phenyl)methanone], the “Tmax” value ([1]; PO, 30MPK, 0.5%CMC-Na suspension) was 2.0 h, the C0 [1, 5] was 2910 ng/mL and the clearance [1, 5] was 15 mL/min/kg. It also gave a Vd ([1]; Sprague-Dawley (SD), rat, 2 mg/kg, IV, 2MPK, 20%HP-B-CD solution, read-out: Vss) of 0.8 L/kg, a Tmax ([1]; Sprague-Dawley (SD), rat, 5 mg/kg, PO, 5MPK, 0.5%CMC-Na, read-out: tmax) of 0.5 h and an AUC(0-inf) [1, 6] of 2280 ng·h/mL. It also gave an AUC(0-t) [1, 6] of 2280 ng·h/mL, a half-life [1, 6] of 0.9 h and an MRT inf ([1]; Sprague-Dawley (SD), rat, iv, 2 mg/kg, IV, 2MPK, 20%HP-B-CD solution) of 0.9 h. For the same molecule, the AUC(0-inf) [1, 7] was 2410 ng·h/mL, the AUC(0-t) [1, 7] was 2390 ng·h/mL and the Cmax [1, 7] was 787 ng/mL. For the same molecule, the bioavailability [1, 7] was 7%, the half-life [1, 7] was 1.2 h and the MRT inf ([1]; Sprague-Dawley (SD), rat, po, 5 mg/kg, PO, 5MPK, 0.5%CMC-Na) was 2.2 h. For the same molecule, the AUC(0-inf) [1, 8] was 31000 ng·h/mL, the AUC(0-t) [1, 8] was 28400 ng·h/mL and the Cmax [1, 8] was 6010 ng/mL. For the same molecule, the bioavailability [1, 8] was 90.4%, the half-life [1, 8] was 1.9 h and the MRT inf ([1]; Sprague-Dawley (SD), rat, po, 30 mg/kg, PO, 30MPK, 0.5%CMC-Na suspension) was 3.8 h. For the same molecule, the “% Increase in total impurity” value ([2]; 50°C, 75%RH, 7 days) was less than 0.1%, the “% Maximum increase in single impurity” value ([2]; 50°C, 75%RH, 7 days) was less than 0.1% and the “% Increase in total impurity” value ([2]; 50°C, 75%RH, 14 days) was less than 0.1%. For the same molecule, the “% Maximum increase in single impurity” value ([2]; 50°C, 75%RH, 14 days) was less than 0.1%, the “% Increase in total impurity” value ([2]; 60°C, 7 days) was less than 0.1% and the “% Maximum increase in single impurity” value ([2]; 60°C, 7 days) was less than 0.1%. For the same molecule, the “% Increase in total impurity” value ([2]; 60°C, 14 days) was less than 0.1%, the “% Maximum increase in single impurity” value ([2]; 60°C, 14 days) was less than 0.1% and the “% Increase in total impurity” value [2, 9] was less than 0.1%. The “% Maximum increase in single impurity” value [2, 9] was less than 0.1%, the “% Increase in total impurity” value [2, 10] was less than 0.1% and the “% Maximum increase in single impurity” value [2, 10] was less than 0.1%. For the same molecule, the solubility at 2 h ([3]; FaSSCoF, 37 °C, fassgf or other biorelevant, FaSSCoF, read-out: Solubility of free base crystal form I) was 118 µg/mL (≈ 253 µM), the solubility at 2 h ([3]; FaSSGF (artificial simulated gastric fluid), 37 °C, fassgf or other biorelevant, FaSSGF, read-out: Solubility of free base crystal form I) was 269 µg/mL (≈ 577 µM) and the solubility at 2 h ([3]; FaSSIF, 37 °C, fassif, FaSSIF, read-out: Solubility of free base crystal form I) was 247 µg/mL (≈ 529 µM). For the same molecule, the solubility at 2 h ([3]; FeSSCoF, 37 °C, fassgf or other biorelevant, FeSSCoF, read-out: Solubility of free base crystal form I) was 182 µg/mL (≈ 390 µM), the solubility at 2 h ([3]; FeSSIF, 37 °C, fessif, FeSSIF, read-out: Solubility of free base crystal form I) was 311 µg/mL (≈ 667 µM) and the solubility at 2 h ([3]; USP buffer pH 1.0, 37 °C, pH 1, simulated gastric fluid, pH 1.0, read-out: Solubility of free base crystal form I) was 799 µg/mL (≈ 1710 µM). The solubility at 2 h ([3]; USP buffer pH 2.0, 37 °C, pH 2, simulated gastric fluid, pH 2.0, read-out: Solubility of free base crystal form I) was 141 µg/mL (≈ 302 µM), the solubility at 2 h ([3]; USP buffer pH 3.0, 37 °C, pH 3, aqueous buffer, pH 3.0, read-out: Solubility of free base crystal form I) was 87 µg/mL (≈ 186 µM) and the solubility at 2 h ([3]; USP buffer pH 4.5, 37 °C, pH 4.5, aqueous buffer, pH 4.5, read-out: Solubility of free base crystal form I) was 80 µg/mL (≈ 171 µM). The solubility at 2 h ([3]; USP buffer pH 6.8, 37 °C, pH 6.8, aqueous buffer, pH 6.8, read-out: Solubility of free base crystal form I) was 81 µg/mL (≈ 174 µM), the solubility at 2 h ([3]; USP buffer, 37 °C, pH 4, aqueous buffer, pH 4.0, read-out: Solubility of free base crystal form I) was 73 µg/mL (≈ 156 µM) and the solubility at 2 h ([3]; USP buffer, 37 °C, pH 5, aqueous buffer, pH 5.0, read-out: Solubility of free base crystal form I) was 88 µg/mL (≈ 189 µM). The solubility at 2 h ([3]; USP buffer, 37 °C, pH 6, aqueous buffer, pH 6.0, read-out: Solubility of free base crystal form I) was 70 µg/mL (≈ 150 µM), the solubility at 2 h ([3]; USP buffer, 37 °C, pH 7, aqueous buffer, pH 7.0, read-out: Solubility of free base crystal form I) was 75 µg/mL (≈ 161 µM) and the solubility at 2 h ([3]; USP buffer, 37 °C, pH 8, aqueous buffer, pH 8.0, read-out: Solubility of free base crystal form I) was 58 µg/mL (≈ 124 µM). For the same molecule, the solubility at 2 h ([3]; water, 37 °C, water, H2O, read-out: Solubility of free base crystal form I) was 91 µg/mL (≈ 195 µM), the “change in the XRPD pattern (crystal form transformation)” value ([4]; after 2 cycles of moisture absorption and desorption at 0%-95% relative humidity) was “no change in the XRPD pattern” and the “weight gain after moisture absorption” value ([4]; at 80%RH) was “about 0.3263%”.
